Results taken from patent US8338401B2, “Coumarin-amide derivatives and its preparation, said drug composition and its use” (Institute of Materia Medica Chinese Academy of Medical …, priority 2002, dated 2012).
“Also recorded” adds a separate entry of the source. Like-named read-outs stand apart in the source and are kept apart here.

Assays:
[1] = Primary acute toxicity test; format: in vivo; details: mice
Procedure: 5 g/kg and 10 g/kg of compound 149 were administered orally to mice once and observed for 14 days. Body weights of 48 hours after administration in mice were no different. At 14th day after administration, the mouse average body weights in 5 g/kg and 10 g/kg groups increased 7 g and 5 g respectively. There was no any other different for every animal and no death were observed.

[2] = tested on: kidney tubulointerstitial fibrosis caused by unilateral ureteral obstruction (UUO) in rats; experiment: Inhibition of kidney tubulointerstitial fibrosis caused by unilateral ureteral obstruction (UUO) in rats; format: in vivo, Male Wistar rats; details: for BUN / Scr. (serum creatinine): oral for 16 days
Procedure: Male Wistar rats with initial body weights of 180˜230 g were used. Unilateral ureteral obstruction was performed under pentobarbital anesthesia (35 mg/kg) and sterile conditions. Via a midline incision, the left ureteral was ligated. Sham surgery was performed by making a midline incision but leaving ureteral intact. Following surgery, rats were randomly divided into sham, model, Benazepril (4 mg/kg/day) and Losartan (10 mg/kg/day) as positive control, and compound 149 (5 mg/kg/day, 10 mg/kg/day and 20 mg/kg/day). Starting 2 day before surgery, Benazepril, Losartan and compound 149 were administered for 16 days orally. BUN and creatinine in serum were determined in the 11th and 16th day (Table 6) following initiation of Benazepril, Losartan and compound 149 treatment, at which time animals were killed and the kidneys were harvested. Tissues were dissected, weighed, fixed in 10% formaldehyde and embedded in paraffin wax for pathological analysis.

[3] = tested on: Salmonella typhimurium TA97, TA98, TA100 and TA102; experiment: Ames test; format: cell-based; details: 0.5-5000.0 μg/plate, presence or absence of S9
Procedure: His^− type Salmonella typhimurium TA97, TA98, TA100 and TA102 were employed. Concentration of the test compound was 0.5, 5.0, 50.0, 500.0, 5000.0 μg/plate. S9 was the microsome component of liver homogenate of a rat weighted 200 g. The test compound 149 was tested in the presence or absence of S9.
According to the Salmonella typhimurium/mammalian microsome enzyme mutagenic test method revised by Ames (1983), metabolism activated or non-metabolism activated plate incorporation assay was conducted on compound 149, and the strain which passed the assay was seeded to the culture medium and incubated at 37° C. under shaking for 15 hours. 100 μl compound solutions with various concentrations were added to 0.1 ml of the culture liquid, and then S9 mixture or phosphate buffer was added, and the mixtures were incubated in a 37° C. water bath for 20 minutes. After that, 2 ml of upper layer agar was added, mixed well and poured into a plate with lower layer agar and incubated at 37° C. for 48 hours. The number of the colonies in each plate was counted.

[4] = tested on: chronic renal failure induced by 5/6 nephrectomy in rats; format: in vivo, Male Wistar rats
Procedure: The model on chronic renal failure induced by partial renal ablation in rats was set up according to the Guidelines of Pre-clinic Research for New Drugs. Male Wistar rats with initial body weights of 200 g, anesthetized with 35 mg/kg of pentobarbital i.p., the right kidney was removed, and the upper and lower pole […] of the left kidney were resected, stop bleeding, closed the abdominal and sutured. Four weeks following surgery, the BUN, creatinine and urinary protein in rats were determined. […] Rats were randomly divided into seven groups, 30/group, with sham, model, Benazepril (4 mg/kg/day) and Losartan (10 mg/kg/day) as positive control, and compound 149 groups (7.5 mg/kg/day, 15 mg/kg/day and 30 mg/kg/day, respectively). All the groups were administered intragastrically, once per day and 6 (six) times per week, till 16 weeks post surgery. Body weights were weighed to observe the growth of the rats. The above indexes were determined every 4 weeks up to the 16th week following the initiation of drug administration, and at each time, a number of animals were sacrificed and the kidneys were harvested for pathological analysis. Pathological lesions in chronic renal failure models are mainly glomerulosclerosis and interstitial fibrosis. According to the damage extents, glomerulosclerosis is divided into five grades (0 IV). 0 grade means no glomerulus pathological changes at all, and IV grade means ultimately glomerular sclerosis and glassy pathological changes.

[5] = 8th week after administration (12 weeks after nephrectomy), 7.5 mg/kg
[6] = 8th week after administration (12 weeks after nephrectomy), 15 mg/kg
[7] = 8th week after administration (12 weeks after nephrectomy), 30 mg/kg
[8] = 8th week after administration (12 wk after nephrectomy), 7.5 mg/kg
[9] = 8th week after administration (12 wk after nephrectomy), 15 mg/kg
[10] = 8th week after administration (12 wk after nephrectomy), 30 mg/kg
[11] = 12th week after administration (16 weeks after nephrectomy), 7.5 mg/kg
[12] = 12th week after administration (16 weeks after nephrectomy), 15 mg/kg
[13] = 12th week after administration (16 weeks after nephrectomy), 30 mg/kg
[14] = 12th week after administration (16 wk after nephrectomy), 7.5 mg/kg
[15] = 12th week after administration (16 wk after nephrectomy), 15 mg/kg
[16] = 12th week after administration (16 wk after nephrectomy), 30 mg/kg

## Cc1c(O)c([N+](=O)[O-])cc2cc(C(=O)Nc3ccc(O)c(C(=O)O)c3)c(=O)oc12 [Compound 149, 3-(3′-carboxy-4′-hydroxy-phenylamidocarbonyl)-6-nitro-7-hydroxy-8-methyl-coumarin]
[1]; 5 g/kg and 10 g/kg, observed for 14 days
  death: no death
[1]; oral once, 5 g/kg
  increase of average body weights at 14th day after administration: 7 g
[1]; oral once, 5 g/kg and 10 g/kg
  Body weights of 48 hours after administration: no different
[1]; oral once, 10 g/kg
  increase of average body weights at 14th day after administration: 5 g
[2]; UUO rats
  improvement of each biochemical index compared with the positive controls: more significant than those of the Losartan group, and equivalent to those of the Benazepril group
  inflammatory cell infiltration and tubulointerstitial fibrosis (pathological changes): significantly attenuated
  pathological results compared with the positive controls: better than Benazepril and equivalent with Losartan
[2]; UUO rats, 5.0 mg/kg
  BUN: 23.71 ± 4.17 mg/dL
  Scr. (serum creatinine): 1.58 ± 0.49 mg/kg
[2]; UUO rats, 10.0 mg/kg
  BUN: 20.76 ± 1.56 mg/dL
  Scr. (serum creatinine): 1.61 ± 0.36 mg/kg
[2]; UUO rats, 20.0 mg/kg
  BUN: 20.77 ± 2.04 mg/dL
  Scr. (serum creatinine): 1.60 ± 0.14 mg/kg
[2]; unilateral ureteral ligation in rats
  overall result in the renal interstitial fibrosis model compared with the positive controls: better than Benazepril and corresponds to (slightly better than) Losartan
[3]
  mutagenesis (Ames test result): no mutagenesis; also recorded: negative
  number of colony formation of Salmonella Typhimurium TA97, TA98, TA100 and TA102: did not increase
[4]; 5/6 nephrectomy rats
  various parameters (BUN, Cre, TGF-β1, Ang II) compared with the positive controls Benazepril and Losartan: all better than those of the Benazepril group and are equivalent to those of the Losartan group
[4]; [5]
  BUN: 22.35 ± 3.120 mg/dL
  serum creatinine (Scr.): 2.14 ± 0.500 mg/dL
[4]; [6]
  BUN: 26.04 ± 4.234 mg/dL
  serum creatinine (Scr.): 1.80 ± 0.550 mg/dL
[4]; [7]
  BUN: 30.54 ± 11.697 mg/dL
  serum creatinine (Scr.): 1.89 ± 0.184 mg/dL
[4]; [8]
  AII (Angiotensin II): 63.9 ± 13.2 pg/mL
  UP (urinary protein): 30.1 ± 16.6 mg/day
  serum TGF-β1: 20.0 ± 6.7 ng/mL
[4]; [9]
  AII (Angiotensin II): 49.9 ± 21.3 pg/mL
  UP (urinary protein): 30.4 ± 16.2 mg/day
  serum TGF-β1: 18.6 ± 12.2 ng/mL
[4]; [10]
  AII (Angiotensin II): 41.0 ± 12.5 pg/mL
  UP (urinary protein): 34.3 ± 12.1 mg/day
  serum TGF-β1: 18.9 ± 10.1 ng/mL
[4]; 8 wk after ad., 7.5 mg/kg
  Glomerulosclerosis Grade (%): 0: 15.7 ± 19.0%
  Glomerulosclerosis Grade (%): I: 24.0 ± 21.1%
  Glomerulosclerosis Grade (%): II: 30.0 ± 20.8%
  Glomerulosclerosis Grade (%): III: 23.2 ± 28.5%
  Glomerulosclerosis Grade (%): IV: 8.0 ± 13.0%
  Glomerulosclerosis Total Grade: 5.7 ± 2.9
[4]; 8 wk after ad., 15 mg/kg
  Glomerulosclerosis Grade (%): 0: 37.5 ± 29.3 %
  Glomerulosclerosis Grade (%): I: 27.5 ± 16.3%
  Glomerulosclerosis Grade (%): II: 18.8 ± 9.9%
  Glomerulosclerosis Grade (%): III: 13.3 ± 20.7%
  Glomerulosclerosis Grade (%): IV: 2.9 ± 8.2%
  Glomerulosclerosis Total Grade: 3.9 ± 1.7
[4]; 8 wk after ad., 30 mg/kg
  Glomerulosclerosis Grade (%): 0: 28.3 ± 20.8%
  Glomerulosclerosis Grade (%): I: 34.2 ± 23.0%
  Glomerulosclerosis Grade (%): II: 7.5 ± 8.8 %
  Glomerulosclerosis Grade (%): III: 17.5 ± 30.7%
  Glomerulosclerosis Grade (%): IV: 6.7 ± 13.4%
  Glomerulosclerosis Total Grade: 4.9 ± 3.5
[4]; [11]
  BUN: 39.42 ± 4.686 mg/dL
  serum creatinine (Scr.): 2.73 ± 0.78 mg/dL
[4]; [12]
  BUN: 37.32 ± 5.467 mg/dL
  serum creatinine (Scr.): 2.63 ± 0.38 mg/dL
[4]; [13]
  BUN: 36.60 ± 5.422 mg/dL
  serum creatinine (Scr.): 2.10 ± 0.71 mg/dL
[4]; [14]
  AII (Angiotensin II): 48.3 ± 48.5 pg/mL
  UP (urinary protein): 66.7 ± 38.8 mg/day
  serum TGF-β1: 13.6 ± 7.1 ng/mL
[4]; [15]
  AII (Angiotensin II): 41.3 ± 28.4 pg/mL
  UP (urinary protein): 52.3 ± 34.4 mg/day
  serum TGF-β1: 12.3 ± 7.7 ng/mL
[4]; [16]
  AII (Angiotensin II): 19.2 ± 9.19 pg/mL
  UP (urinary protein): 48.2 ± 31.6 mg/day
  serum TGF-β1: 11.6 ± 6.7 ng/mL
[4]; 12 weeks after nephrectomy (8 weeks since administration), compound 149 30 mg/kg, Losartan 10 mg/kg/day
  Glomerulus pathological scores, compared with the model group: less than that of the model group significantly
[4]; 12 weeks after nephrectomy (8 weeks since administration), compound 149 30 mg/kg, Losartan 10 mg/kg/day, P<0.05
  rates of 0 grade glomerylus in residual kidney, compared with the model group: higher than that of the model group with significant difference
[4]; 12 wk after ad., 7.5 mg/kg
  Glomerulosclerosis Grade (%): 0: 0%
  Glomerulosclerosis Grade (%): I: 2.3 ± 6.3%
  Glomerulosclerosis Grade (%): II: 37.1 ± 16.0%
  Glomerulosclerosis Grade (%): III: 51.4 ± 8.6%
  Glomerulosclerosis Grade (%): IV: 13.8 ± 20.6%
  Glomerulosclerosis Total Grade: 8.6 ± 1.9
[4]; 12 wk after ad., 15 mg/kg
  Glomerulosclerosis Grade (%): 0: 0%
  Glomerulosclerosis Grade (%): I: 8.1 ± 14.1%
  Glomerulosclerosis Grade (%): II: 38.1 ± 27.4%
  Glomerulosclerosis Grade (%): III: 46.2 ± 26.1%
  Glomerulosclerosis Grade (%): IV: 9.1 ± 12.6%
  Glomerulosclerosis Total Grade: 7.7 ± 1.7
[4]; 12 wk after ad., 30 mg/kg
  Glomerulosclerosis Grade (%): 0: 0%
  Glomerulosclerosis Grade (%): I: 2.0 ± 4.5%
  Glomerulosclerosis Grade (%): II: 71.3 ± 11.5 %
  Glomerulosclerosis Grade (%): III: 26.7 ± 7.8 %
  Glomerulosclerosis Grade (%): IV: 0%
  Glomerulosclerosis Total Grade: 6.7 ± 0.2
[4]; 16 weeks after nephrectomy (12 weeks since administration), compound 149 30 mg/kg (P<0.01), Losartan 10 mg/kg/day (P<0.05)
  number of grade III glomerulus, compared with the model group: less than that of the model group significantly
[4]; rat, in vivo
  affection with the major organs such as heart, liver, spleen, and lungs (pathological results): no significant affection
